From article PMC11436757, “BRCA2 stabilises RAD51 and DMC1 nucleoprotein filaments through a conserved interaction mode” (Nature Communications, 2024)
“Also recorded” adds a separate entry of the source. No end group written: not given here.

Legend:
[1] = test system: RAD51 L180E-ssDNA filaments; assay: EMSA, protection of RAD51 L180E-ssDNA filaments from BRC4-mediated disruption (random sequence ssDNA); type: biochemical; conditions: 100-nt random ssDNA
Description: (§1) To form nucleoprotein filaments, DMC1 and RAD51 was incubated with fluorescent 100-base ssDNA (5’-FAM- […]-3’) at the concentrations indicated in the figures for 30 minutes at 4 °C in reaction buffer. For DMC1, reaction buffer is 25 mM TEA (triethanolamine) pH 7.5, 1 mM ATP, 2 mM MgCl2, 0.1 mg/ml BSA, 2 mM DTT, 200 mM KCl. For RAD51, reaction buffer is 50 mM TEA (triethanolamine), 2 mM ATP, 0.5 mM MgCl2, 2 mM DTT. For assays requiring incomplete nucleoprotein filament assembly, the reaction buffer consisted of 50 mM TAE (tris, acetate, EDTA) pH 7.5, 2 mM ATP, 2 mM MgCl2, 2 mM DTT. In nucleoprotein formation stimulation assays or supershift experiments, BRCA2Ex14 or BRCA2Ex14-AAA were added for a further 30 min at 4 °C. […] Glycerol was added at a final concentration of 3%, and samples were analysed by electrophoresis on a 1% (w/v) (for DMC1) or 0.66% (w/v) (for RAD51) agarose gel in 0.5x TAE pH 8.0 at 20–40 V for ~4 h at 4 °C. DNA was detected by FAM using a Typhoon^TM FLA 9500 (GE Healthcare), with 473 nm laser at excitation wavelength 490 nm and emission wavelength 520 nm, using the LPB filter and a PMT voltage of 500 V. To analyse RAD51 nucleoprotein filaments assembled upon 100-base poly(dT) ssDNA, gels were stained post-run using SYBR^TM Gold Nucleic Acid Gel Stain (Invitrogen) and detected using a Typhoon^TM FLA 9500 (GE Healthcare).

[2] = test system: RAD51-ssDNA filaments; conditions: ref [33],[34]; cited from earlier work
From the text: BRCA2 interacts with RAD51 and DMC1 recombinases through BRC repeats and PhePP motifs (Fig. 1a)[21],[25]–[28]. The eight BRC repeats, located within BRCA2’s central exon 11 region, bind to RAD51 and DMC1 with various affinities[25],[29],[30].

[3] = test system: RAD51; conditions: cited from earlier work
From the text: BRCA2 interacts with RAD51 and DMC1 recombinases through BRC repeats and PhePP motifs (Fig. 1a)[21],[25]–[28]. The eight BRC repeats, located within BRCA2’s central exon 11 region, bind to RAD51 and DMC1 with various affinities[25],[29],[30]. […] The first loop consists of amino-acids 147-GAGGYPG-153 in DMC1 and 148-IDRGGGE-154 in RAD51 (herein referred to as PhePP-binding loop A; Fig. 1d), and is one of the most divergent regions between DMC1 and RAD51 (Supplementary Fig. 4). The second loop consists of amino-acids 178-NVDHDA-183 in DMC1 and 179-GLSGSD-184 in RAD51 (herein referred to as PhePP-binding loop B; Fig. 1e), in which residues V179 (DMC1) and L180 (RAD51) substantially contribute to the PhePP-binding pocket. ...

[4] = test system: DMC1 ΔN F85E; assay: Amylose pull-down of His-DMC1 ΔN F85E (monomeric) with MBP-BRCA2 fusions; type: binding, human; conditions: lysates mixed; MBP-BRCA2 fusion; 20 mM Tris pH 8.0, 500 mM KCl, 2 mM DTT
Description: For affinity experiments involving DMC1 ΔN V179E and F85E, MBP-fusions of BRCA2 fragments (Ex14, amino-acids 2387-2420, Ex14-Tr, amino acids 2401-2414, BRC4, amino acids 1519-1551) were cloned into pMAT11 vectors and DMC1 ΔN mutants (V179E or F85E) were cloned into pHAT4 vectors. Lysates of bacterial cultures expressing His6-DMC1 mutants or MBP-BRCA2 constructs were mixed, and complexes were purified through amylose affinity chromatography in 20 mM Tris pH 8.0, 500 mM KCl, 2 mM DTT and eluted using 30 mM D-maltose.

[5] = test system: DMC1 V179E-ssDNA filaments; assay: EMSA, super-shift of filaments formed using DMC1 V179E; type: biochemical, human
Description: as §1

[6] = test system: DMC1-ssDNA filaments; assay: EMSA, protection of DMC1-ssDNA filaments from BRC4-mediated disruption; type: biochemical, human; conditions: 10-fold excess of BRC4
Description: Finally, we tested whether binding of BRCA2 Ex14 protects DMC1-ssDNA nucleoprotein filaments from BRC4-mediated disruption (Fig. 3c). […] Further, whilst the core PhePP interaction site is sufficient to stimulate DMC1-ssDNA nucleoprotein filament formation, surrounding amino-acids that are present within Ex14 (but not Ex14-Tr) are necessary to super-shift filaments and confer protection from BRC4-mediated disruption.
as §1

[7] = test system: DMC1; conditions: ref [21],[27],[32]; cited from earlier work
From the text: The PhePP-binding site of DMC1 is formed by two loops, corresponding to amino-acids 147-153 and 178-183, respectively. The first loop consists of amino-acids 147-GAGGYPG-153 in DMC1 and 148-IDRGGGE-154 in RAD51 (herein referred to as PhePP-binding loop A; Fig. 1d), and is one of the most divergent regions between DMC1 and RAD51 (Supplementary Fig. 4). The second loop consists of amino-acids 178-NVDHDA-183 in DMC1 and 179-GLSGSD-184 in RAD51 (herein referred to as PhePP-binding loop B; Fig. 1e), in which residues V179 (DMC1) and L180 (RAD51) substantially contribute to the PhePP-binding pocket. ...

## Ex27: BRCA2 exon 27 PhePP peptide, amino acids 3270-3315 (ALDFLSRLPLPPPVSPICTFVSPAAQKAFQPPRSCGTKYETPIKKK; UniProt P51587 3270-3315, looked up, fragment)
[1]
  protection of RAD51 L180E-ssDNA filaments from BRC4-mediated disruption: not protected; also recorded: abrogated
[2]
  protection of nucleoprotein filaments from BRC-mediated disruption: protects nucleoprotein filaments from BRC-mediated disruption
[3]; ref [21],[27],[32]
  selective binding to RAD51: bind selectively to DMC1 and RAD51, respectively
[3]; ref [33],[34]
  binding to RAD51 filaments versus monomers: binds to RAD51 filaments, rather than monomers

## ATRNEKMRHLITTGRPTKVFVPPFKTKSHFHRVE [Ex14]
[4]
  binding in pull-down: failed to interact; also recorded: no interaction
[5]
  super-shift of DMC1 V179E-ssDNA filaments: The residual super-shift was the same; also recorded: only minimal super-shift
[6]; 5-fold excess (55 μM) peptide
  protection of DMC1-ssDNA filaments from BRC4-mediated disruption: complete protection
[6]; TEA pH 7.5 + KCl, Ex14 10-fold stoichiometric excess (110 μM)
  protection of DMC1-ssDNA filaments from BRC4-mediated disruption: protected against BRC4-mediated disruption; also recorded: protected filaments from disruption
[6]; equimolar (11 μM) peptide
  protection of DMC1-ssDNA filaments from BRC4-mediated disruption: some protection
[7]
  selective binding to DMC1: bind selectively to DMC1
